Literature values as cited in US6379706B2, “Rapidly disintegrating coated pellets with delayed release” (Roche Diagnostics GmbH, priority 1996, dated 2002).

Conditions: for solubility (in words): aqueous medium

Row | solubility (in words) | solubility in the intestinal juice (in words) (intestinal juice) | Compound
1 | poorly soluble | particularly poorly soluble | COc1ccccc1OCCNCC(O)COc1cccc2[nH]c3ccccc3c12 (racemic) [Carvedilol, (+/−)-1-(9H-carbazol-4-yloxy)-3-[(2-(2-methoxyphenoxy)-ethyl)-amino]-2-propanol]
2 | poorly soluble | – | CC(C)(Oc1ccc(CCNC(=O)c2ccc(Cl)cc2)cc1)C(=O)O [Bezafibrat, 2-{4-[2-[(4-chloro-benzoyl)-amino]ethyl]-phenoxy}-2-methylpropionic acid]
3 | poorly soluble | – | Cc1cccc(Nc2ccncc2S(=O)(=O)NC(=O)NC(C)C)c1 [Torasemid, 1-isopropyl-3-[(4-m-toluidino-3-pyridyl)sulfonyl]-urea]
